Measured values taken from PubChem BioAssay AID1919014 (Molecular Pharmacology Branch, DTP, NCI, 2023).

Tested on: NCI-H1341 complex spheroids, percent test/control
Experiment: Anticancer human tumor NCI-H1341 cell line growth inhibition [AhR];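 note: spheroids exposed to agents for seven days before readout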
Settings: for IC50: curve of first compound; for viability, T/C: stronger effect = lower value; active = viability on the fitted dose curve at most 10% of control; inactive = the rest
How it was run: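 Complex tumor spheroids co-cultured with HUVEC and human MSC stroma; AhR antagonists tested in combination with standard-of-care and investigational agents. Top concentration at or near clinical Cmax (else 10 microM), half-log dilutions; growth expressed as percent test/control.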

[1] = second compound 0.1 µM, first compound 0.0316 µM
[2] = second compound 0.1 µM, first compound 0.1 µM
[3] = second compound 0.1 µM, first compound 0.316 µM
[4] = second compound 0.1 µM, first compound 1 µM
[5] = second compound 0.1 µM, first compound 3.16 µM
[6] = second compound 0.1 µM, first compound 10 µM
[7] = second compound 0.316 µM, first compound 0.0316 µM
[8] = second compound 0.316 µM, first compound 0.1 µM
[9] = second compound 0.316 µM, first compound 0.316 µM
[10] = second compound 0.316 µM, first compound 1 µM
[11] = second compound 0.316 µM, first compound 3.16 µM
[12] = second compound 0.316 µM, first compound 10 µM
[13] = second compound 1 µM, first compound 0.0316 µM
[14] = second compound 1 µM, first compound 0.1 µM
[15] = second compound 1 µM, first compound 0.316 µM
[16] = second compound 1 µM, first compound 1 µM
[17] = second compound 1 µM, first compound 3.16 µM
[18] = second compound 1 µM, first compound 10 µM
[19] = second compound 3.16 µM, first compound 0.0316 µM
[20] = second compound 3.16 µM, first compound 0.1 µM
[21] = second compound 3.16 µM, first compound 0.316 µM
[22] = second compound 3.16 µM, first compound 1 µM
[23] = second compound 3.16 µM, first compound 3.16 µM
[24] = second compound 3.16 µM, first compound 10 µM
[25] = second compound 10 µM, first compound 0.0316 µM
[26] = second compound 10 µM, first compound 0.1 µM
[27] = second compound 10 µM, first compound 0.316 µM
[28] = second compound 10 µM, first compound 1 µM
[29] = second compound 10 µM, first compound 3.16 µM
[30] = second compound 10 µM, first compound 10 µM
[31] = second compound 0.1 µM, first compound 0.00316 µM
[32] = second compound 0.1 µM, first compound 0.01 µM
[33] = second compound 0.316 µM, first compound 0.00316 µM
[34] = second compound 0.316 µM, first compound 0.01 µM
[35] = second compound 1 µM, first compound 0.00316 µM
[36] = second compound 1 µM, first compound 0.01 µM
[37] = second compound 3.16 µM, first compound 0.00316 µM
[38] = second compound 3.16 µM, first compound 0.01 µM
[39] = second compound 10 µM, first compound 0.00316 µM
[40] = second compound 10 µM, first compound 0.01 µM

CC(C)c1c(-c2ccccc2)nc2c(C#N)c[nH]n2c1=O + CC(CO)NC(=O)c1cc(-c2ccc(Cl)cc2)nn(-c2cnn(C)c2)c1=O
> 10 µM: IC50 (second compound 0.1 µM) | IC50 (second compound 0.316 µM) | IC50 (second compound 1 µM) | IC50 (second compound 3.16 µM) | IC50 (second compound 10 µM)
inactive: viability, T/C [1] 85.4% | viability, T/C [2] 89.8% | viability, T/C [3] 78.7% | viability, T/C [4] 82.6% | viability, T/C [5] 101% | viability, T/C [6] 88.4% | viability, T/C [7] 86.8% | viability, T/C [8] 95.6% | viability, T/C [9] 93% | viability, T/C [10] 100% | viability, T/C [11] 86.5% | viability, T/C [12] 73% | viability, T/C [13] 96.1% | viability, T/C [14] 91.2% | viability, T/C [15] 95.6% | viability, T/C [16] 94.5% | viability, T/C [17] 76.2% | viability, T/C [18] 69.5% | viability, T/C [19] 84.5% | viability, T/C [20] 99.2% | viability, T/C [21] 106% | viability, T/C [22] 81.8% | viability, T/C [23] 64.5% | viability, T/C [24] 79.1% | viability, T/C [25] 86.2% | viability, T/C [26] 74.4% | viability, T/C [27] 74.2% | viability, T/C [28] 71.6% | viability, T/C [29] 70.9% | viability, T/C [30] 59.8%

CC1COCCN1c1cc(-c2ccnn2C)c2ccnc(-c3ccn[nH]3)c2n1 (stereo not given) + CC(CO)NC(=O)c1cc(-c2ccc(Cl)cc2)nn(-c2cnn(C)c2)c1=O
inactive: viability, T/C [31] 87.6% | viability, T/C [32] 77.6% | viability, T/C [1] 61.2% | viability, T/C [2] 28.6% | viability, T/C [3] 20.5% | viability, T/C [4] 20.2% | viability, T/C [33] 96.4% | viability, T/C [34] 73.6% | viability, T/C [7] 54.5% | viability, T/C [8] 29.7% | viability, T/C [9] 23.8% | viability, T/C [10] 18.2% | viability, T/C [35] 90.2% | viability, T/C [36] 72.3% | viability, T/C [13] 44.6% | viability, T/C [14] 25.3% | viability, T/C [15] 22.7% | viability, T/C [16] 19.2% | viability, T/C [37] 84.3% | viability, T/C [38] 77.3% | viability, T/C [19] 43.1% | viability, T/C [20] 24.6% | viability, T/C [21] 23.7% | viability, T/C [22] 17.8% | viability, T/C [39] 71.2% | viability, T/C [40] 64% | viability, T/C [25] 33% | viability, T/C [26] 21.6% | viability, T/C [27] 22.2% | viability, T/C [28] 17.8%
0.0458 µM: IC50 (second compound 0.1 µM)
0.0248 µM: IC50 (second compound 1 µM)
0.0343 µM: IC50 (second compound 0.316 µM)
0.0168 µM: IC50 (second compound 10 µM)
0.0253 µM: IC50 (second compound 3.16 µM)

COc1ccc([C@@H](O)c2cc(-c3ncnc4cc(N5CCOCC5)ccc34)c(F)cc2Cl)nn1 + CC(CO)NC(=O)c1cc(-c2ccc(Cl)cc2)nn(-c2cnn(C)c2)c1=O
1.06 µM: IC50 (second compound 1 µM)
1.14 µM: IC50 (second compound 0.316 µM)
1.22 µM: IC50 (second compound 3.16 µM)
0.691 µM: IC50 (second compound 10 µM)
inactive: viability, T/C [1] 101% | viability, T/C [2] 89.7% | viability, T/C [3] 82.5% | viability, T/C [4] 61% | viability, T/C [5] 29.6% | viability, T/C [7] 88% | viability, T/C [8] 93.7% | viability, T/C [9] 72.7% | viability, T/C [10] 48.8% | viability, T/C [11] 32.7% | viability, T/C [12] 8.73% | viability, T/C [13] 89.7% | viability, T/C [14] 83.8% | viability, T/C [15] 76.6% | viability, T/C [16] 48.2% | viability, T/C [17] 28.2% | viability, T/C [19] 79.6% | viability, T/C [20] 84.8% | viability, T/C [21] 85.9% | viability, T/C [22] 52.7% | viability, T/C [23] 24% | viability, T/C [25] 90.2% | viability, T/C [26] 75.8% | viability, T/C [27] 68.2% | viability, T/C [28] 41.5% | viability, T/C [29] 22.1%
1.47 µM: IC50 (second compound 0.1 µM)
active: viability, T/C [6] 8.94% | viability, T/C [18] 8.67% | viability, T/C [24] 7.24% | viability, T/C [30] 7.39%

COc1cccc2c1C(=O)c1c(O)c3c(c(O)c1C2=O)CC(O)(C(=O)CO)CC3OC1CC(N)C(O)C(C)O1 (stereo not given) + Cc1ccccc1N=Nc1ccc(NC(=O)c2ccnn2C)c(C)c1
< 0.0316 µM: IC50 (second compound 0.316 µM) | IC50 (second compound 3.16 µM) | IC50 (second compound 10 µM)
inactive: viability, T/C [1] 59.7% | viability, T/C [2] 44.6% | viability, T/C [3] 37.9% | viability, T/C [4] 18.2% | viability, T/C [7] 50% | viability, T/C [8] 48.6% | viability, T/C [9] 38.2% | viability, T/C [10] 24.2% | viability, T/C [13] 58.8% | viability, T/C [14] 51.5% | viability, T/C [15] 44.6% | viability, T/C [16] 16.5% | viability, T/C [19] 50.1% | viability, T/C [20] 48.2% | viability, T/C [21] 41.1% | viability, T/C [22] 16.2% | viability, T/C [25] 40.9% | viability, T/C [26] 41.2% | viability, T/C [27] 35.9% | viability, T/C [28] 14.4%
0.166 µM: IC50 (second compound 1 µM)
0.0928 µM: IC50 (second compound 0.1 µM)
active: viability, T/C [5] 1.96% | viability, T/C [6] 4.55% | viability, T/C [11] 2.31% | viability, T/C [12] 4.21% | viability, T/C [17] 2.36% | viability, T/C [18] 4.45% | viability, T/C [23] 3.35% | viability, T/C [24] 5.99% | viability, T/C [29] 5.03% | viability, T/C [30] 4.31%

Nc1ncn(C2CC(O)C(CO)O2)c(=O)n1 (stereo not given) + Cc1ccccc1N=Nc1ccc(NC(=O)c2ccnn2C)c(C)c1
0.135 µM: IC50 (second compound 10 µM)
> 1 µM: IC50 (second compound 0.1 µM) | IC50 (second compound 0.316 µM) | IC50 (second compound 1 µM)
0.763 µM: IC50 (second compound 3.16 µM)
inactive: viability, T/C [31] 102% | viability, T/C [32] 103% | viability, T/C [1] 84.1% | viability, T/C [2] 63.7% | viability, T/C [3] 59.6% | viability, T/C [4] 51% | viability, T/C [33] 102% | viability, T/C [34] 101% | viability, T/C [7] 100% | viability, T/C [8] 79.2% | viability, T/C [9] 53.8% | viability, T/C [10] 51% | viability, T/C [35] 100% | viability, T/C [36] 97% | viability, T/C [13] 81% | viability, T/C [14] 60.2% | viability, T/C [15] 63% | viability, T/C [16] 54.5% | viability, T/C [37] 81.4% | viability, T/C [38] 77% | viability, T/C [19] 68.5% | viability, T/C [20] 61.8% | viability, T/C [21] 53.1% | viability, T/C [22] 49.7% | viability, T/C [39] 70.6% | viability, T/C [40] 54.9% | viability, T/C [25] 61.8% | viability, T/C [26] 49.9% | viability, T/C [27] 47.8% | viability, T/C [28] 42.1%
